In PubChem BioAssay AID504765 (Sanford-Burnham Center for Chemical Genomics, 2011):
pIC50: −log10 of the molar value. Several values for one entry are separate records, joined by “and”; a condition that tells them apart may be missing. Equal entries are not always repeated. Activity calls are given as the source filed them. No rule for the calls is given here.

Target: glucose-6-phosphate dehydrogenase-6-phosphogluconolactonase (Plasmodium falciparum 3D7)
Test: PfG6PD inhibitor potency, dose response, biochemical, fluorescence intensity (AID 504765)
Conditions: Recombinant PfG6PD enzyme, fluorescence intensity (NADPH)

SMILES	pIC50	IC50
Cc1ccc(NC(=O)c2cc(C)n(-c3ccccc3)c2C)cc1	4.85	
c1ccc(-c2cn3c(n2)CCc2ccc4cccnc4c2-3)cc1	5.07	
CCOC(=O)Cc1csc(-n2sc3ccccc3c2=O)n1	5.55	
Nc1[nH]c(=O)[nH]c(=O)c1N=Cc1ccccc1	5.48	
CCC(=O)OCCNc1cc(Sc2nc3ccccc3s2)c2nonc2c1[N+](=O)[O-]	4.79	
O=c1[nH]nc(CNc2ccc(O)cc2)c2ccccc12		inactive
COc1ccc(OCc2nnc3n2N=C(c2ccccc2)C(CC(=O)O)S3)cc1 (stereo unspecified)		inactive
N#Cc1ccc(N=c2ssnc2Cl)cc1	4.86	
Cc1cc(C)c(S(=O)(=O)Nc2cc(SCC(=O)O)c(O)c3ccccc23)cc1C	5.92	
CCNc1nc(NC(C)C)nc(NS(=O)(=O)c2ccc(Cl)cc2)n1	5.18	
O=C(Nc1ccc(N2CCCC2)cc1)c1cccc(-c2cc3ccccc3oc2=O)c1		inactive
O=C(CCC(=O)Nc1ccccc1Cl)N/N=C/c1ccccc1	5.50	
CC(NC(=O)c1sc2cc([N+](=O)[O-])ccc2c1Cl)C(C)(C)C (stereo unspecified)	4.73	
COc1ccc(S(=O)(=O)Nc2cc(SCC(=O)O)c(O)c3ccccc23)cc1	5.69	
O=C1Nc2cc(C(=O)NCCCN3CCCC3)ccc2S/C1=C/c1cccc(Cl)c1	4.75	
CN1CCN(C(=S)c2ccc(Br)cc2)CC1		inactive
O=C(CBr)c1ccc([N+](=O)[O-])c(CS(=O)(=O)c2ccc(Cl)cc2)c1	4.98	
Cc1ccccc1-n1c(-c2ccc3ccccc3n2)n[nH]c1=S	4.84	
COc1cc(N=c2ssnc2Cl)c(OC)cc1Cl	4.87	
COc1cc(N=c2ssnc2Cl)cc(OC)c1	4.88	
O=C(O)C(Cc1ccccc1)N1C(=O)C=CC1=O (stereo unspecified)	5.22	
Nc1ccc2c3c(cccc13)-c1ccccc1-2		inactive
CCOC(=O)c1cnc2ccc(C)cc2c1Sc1ccccc1C(=O)OC	4.95	
O=C1C(=Cc2cccc(O)c2O)SC(=S)N1CCCN1CCOCC1	4.85	

SMILES	pIC50	IC50
COc1cc(SSc2cc(OC)cc([N+](=O)[O-])c2N)c(N)c([N+](=O)[O-])c1	5.38	
Cc1ccc(C(=O)NCC(=O)NCC(=O)OCC(=O)c2ccc([N+](=O)[O-])cc2)cc1	5.23	
Nc1ccc(S(=O)(=O)c2cc(O)c3ccccc3c2O)cc1	5.24	
COc1cc(N=c2ssnc2Cl)cc(OC)c1OC	4.81	
COc1cccc(C2(c3cccc(OC)c3)CC2C(=O)Nc2ccc(F)cc2)c1 (stereo unspecified)	4.99	
O=C(Nc1nnc(S(=O)(=O)N2CCCCC2)s1)c1ccc(Cl)cc1	5.22	
Nn1c(SCC(=O)Nc2cccnc2Cl)nnc1-c1ccccc1		inactive
CCc1ccc(OCC(=O)N/N=C/c2cc([N+](=O)[O-])ccc2N2CCOCC2)cc1	5.08	
CCOC(=O)c1sc(NC(=O)CSc2nnc(Cc3ccccc3)o2)c(C#N)c1C		inactive
O=C(O)CSc1cc(NS(=O)(=O)c2cccc([N+](=O)[O-])c2)c2ccccc2c1O	5.87	
CN1CCN(C(=S)C(=O)Nc2ccc(Br)cc2)CC1	5.14	
Cc1ccc(S(=O)(=O)Oc2cccc(/C=N/Nc3ccc(C(=O)O)cc3)c2)cc1	5.15	
CC1N(C)c2cccc3cccc(c23)N1C	4.95	
COc1cccc(C=Nc2cc(C(C)C)c(O)cc2C)c1O	5.26	
COc1ccc(C(=O)Nc2cc(Cl)ccc2C(=O)O)cc1	4.82	
CC(C)(C)c1ccc(O)c(O)c1		inactive
CC1=C(O)C(=O)C=C2C1=CC=C1C2(C)CCC2(C)C3CC(C)(C(=O)O)CCC3(C)CCC12C (stereo unspecified)	4.78	
O=S(c1ccccc1O)S(=O)c1ccccc1O (stereo unspecified)	5.31	
CN(C)c1ccc2nc3ccc(=O)cc-3sc2c1	4.88	
CC(C)c1nnc(NC(=O)c2sc3ccccc3c2Cl)s1	5.19	
Cc1ccc(SC2=C(Sc3ccc(C)cc3)C(=O)c3ccccc3C2=O)cc1	4.96	
CCN(CC)c1ccc(C(=C2C=CC(=[N+](CC)CC)C=C2)c2ccccc2)cc1	4.93	
CSc1nnc(NC(=O)c2ccc3c(c2)OCO3)s1	5.55	
CC(=O)c1cccc(NC(=O)c2cnn(-c3ccccc3)c2C)c1	5.07	

SMILES	pIC50	IC50
CC(=O)Nc1ccc2sn(-c3ccccc3)c(=O)c2c1	5.60	
COc1cc(NCCCn2ccc(NC(=O)OCc3ccccc3)nc2=O)cc(OC)c1OC	4.75	
COC(=O)c1ccccc1NC1=C/C(=N\S(=O)(=O)c2cccs2)c2ccccc2C1=O	5.90 and 5.19	
Cc1ccc2nc(SCC(=O)NC3CCCc4ccccc43)[nH]c2c1 (stereo unspecified)	5.02	
COc1cc(N2C(=O)C=CC2=O)ccc1N1C(=O)C=CC1=O	5.35	
Cc1nnc(Sc2cc(NCCO)c([N+](=O)[O-])c3nonc23)s1	5.25	
O=C(O)c1ccccc1NS(=O)(=O)c1cccc(-n2sc3ccccc3c2=O)c1	5.26	
O=C(O)CSc1cc(NS(=O)(=O)c2ccc(Cl)cc2)c2ccccc2c1O	5.38	
Clc1cccc(Cl)c1CNc1ccc(N2CCCC2)cc1	5.42	
C=C1C(=O)O[C@@H]2C[C@@H](C)[C@@H]3C=CC(=O)[C@@]3(C)[C@@H](OC(=O)CC(=O)O[C@H]3[C@@H]4C(=C)C(=O)O[C@@H]4C[C@@H](C)[C@@H]4C=CC(=O)[C@]43C)[C@H]12	4.88	
CCN(CC)c1ccc(NC(=O)c2cccc(C)c2)cc1S(=O)(=O)Nc1ccccc1OC		inactive
Cc1cc(C)c2c(=O)n(CC(=O)NC3CCCC3)sc2n1	5.71	
O=C(COC(=O)c1cnccn1)c1ccc([N+](=O)[O-])cc1	4.91	
CC1(OC(=O)C2CCCC2)C(=O)C=C2C=C(c3ccsc3)N(CC3CC3)C=C2C1=O (stereo unspecified)	5.11	
CCC1(CC)Cc2ccccc2C(N)=C1C#N		inactive
O=c1ccsn1Cc1ccccc1	5.64	
c1ccc(SSc2ccccn2)nc1	5.01	
O=C(CSc1nc2ccccc2[nH]1)NC1CCCc2ccccc21 (stereo unspecified)	4.87	
CCOc1ccccc1NC(=O)CCCc1nc2ccccc2c(=O)[nH]1	5.13	
O=C(CNC(=O)c1cccs1)NCC(=O)OCC(=O)c1ccc([N+](=O)[O-])cc1	4.78	
CC1CCc2c(nc3sc4c(c3c2N)CCCC4)C1 (stereo unspecified)	4.83	
C(=N\Nc1nc2ccccc2[nH]1)/c1ccccn1	5.28	
O=c1c2ccccc2sn1-c1ccc(Cl)cc1Cl	5.40	
COc1ccc2ccccc2c1C1CC(=O)N2CN(C3CCCCC3)CSC2=C1C#N (stereo unspecified)	4.83	

SMILES	pIC50	IC50
O=S(=O)(Nc1cc(Sc2cccc3cccnc23)c(O)c2ccccc12)c1ccc(F)cc1	5.91	
COc1ccc(NS(=O)(=O)c2ccc(N3CCCC3)c(NC(=S)Nc3cccc(C)c3C)c2)cc1		inactive
Cc1cccc(NC2=C(NC(=O)c3ccccc3)C(=O)c3ccccc3C2=O)c1	4.97	
COc1cc(C(=O)O/N=C2/C=C(C)C(=O)C=C2C)cc(OC)c1OC	4.94	
O=C(CCl)NCCN1C(=O)S/C(=C\c2cccnc2)C1=O	5.00	
O=C1Nc2cc(C(=O)NCCCN3CCCC3)ccc2S/C1=C\c1ccccc1	5.03	
CN(CCO)c1cc(Sc2nc3ccccc3s2)c2nonc2c1[N+](=O)[O-]	4.95	
CCN1CCCC1CNC(=O)c1ccc2c(c1)NC(=O)/C(=C\c1ccccc1Cl)S2 (stereo unspecified)	5.51	
CC1(C)CC2(CC(c3ccccc3F)c3ccc(O)c(O)c3O2)NC(=S)N1 (stereo unspecified)	4.89	
NNC(=O)CN1C(c2ccccc2Br)=Nc2ccc(Br)cc2C1c1ccccc1 (stereo unspecified)	5.47	
O=C(Cn1sc2ccccc2c1=O)NC12CC3CC(CC(C3)C1)C2	5.75	
N#CC1=C(N)Oc2c(O)cc3ccccc3c2C1c1ccsc1 (stereo unspecified)	5.17	
COc1ccc(NC(C)C(=O)N/N=C/c2cc(Br)ccc2OC)cc1 (stereo unspecified)	5.06	
NC(=O)N/N=C/c1ccc(-n2nncc2-c2ccc(Cl)cc2)cc1	4.93	
COc1cc(NCCCn2cnc(C(=O)Nc3ccc(C)c(C)c3)n2)cc(OC)c1OC		> 80 µM (inactive)
Cc1cc(O)c(C(C)C)cc1N=Cc1ccc(N(C)C)cc1	5.36	
O=c1c2ccccc2sn1-c1ccccc1	5.94	
[O-]/[N+](=C/c1cccnc1)c1ccc(Br)cc1	5.95	
Cc1ccc(S(=O)(=O)SCCCSS(=O)(=O)c2ccc(C)cc2)cc1	5.33	
CC1(C)Nc2ccc(O)cc2-c2c1ssc2=S		inactive
Cn1sc2ccccc2c1=O	5.24	
CS(=O)(=O)c1ccc(N)c(SSc2cc(S(C)(=O)=O)ccc2N)c1	5.39	
Cc1ccc2nc3sc(C(=O)N4CCOCC4)c(N)c3cc2c1	4.89	
CC(=O)OCCCNc1cc(Sc2nc3ccccc3s2)c2nonc2c1[N+](=O)[O-]	5.41	

SMILES	pIC50	IC50
CCN(CC)C(=O)c1c(C)[nH]c(=S)c(C#N)c1-c1ccco1		inactive
COc1cc(/C=C/C(=O)c2ccc([N+](=O)[O-])o2)ccc1O	5.29	
COc1cc(Sc2ccc(C)cc2)c(OC)cc1N	5.15	
CN(C)S(=O)(=O)c1cccc(-n2sc3ccccc3c2=O)c1	5.68	
COc1cc(CNc2ccc(N3CCCC3)cc2)ccc1OCc1ccccc1F	5.62	
O=c1c2ccccc2sn1-c1ccc(S(=O)(=O)N2CCCCC2)cc1	5.14	
CC1COCC(C)N1C1=C(Cl)C(=O)c2ccccc2C1=O (stereo unspecified)	5.14	
O=C(Nc1ccc(N2CCN(C(=O)c3ccco3)CC2)c(Cl)c1)c1cc2ccccc2o1	4.99	
Cc1cnc(C=NNC(N)=S)c2cccc(N)c12	5.76	
O=[N+]([O-])c1c(NCCCO)cc(Sc2nc3ccccc3s2)c2nonc12	4.90	
O=C1C=CC(=O)N1c1ccc(-c2nc3ccccc3o2)cc1	4.90	
COc1cccc(/C=N/NC(=O)c2c(C)nc3ccc(Br)cn23)c1	5.54	
COc1ccc(C(=O)/C=C2\Sc3ccccc3N2C)cc1	5.10	
COc1ccc(C(=O)Nc2nnc(S(=O)(=O)N3CCOCC3)s2)cc1	5.15	
O=c1c2cc(F)ccc2sn1-c1ccc(F)cc1	5.65	
Oc1ccc(C2C[C@H]3CC[C@@H]2C3)cc1O (stereo partly specified)	5.24	
OCc1ccccc1SSc1ccccc1CO	4.78	
Cc1ccc(NC(=O)c2cc(N3C(=O)C=CC3=O)ccc2Cl)cc1C	4.85	
CCOC(=O)c1c(OCC)[nH]c2c1cc(O)c1ccccc12		inactive
CC(Cc1ccc(O)c(O)c1)C(C)Cc1ccc(O)c(O)c1 (stereo unspecified)		inactive
